tested on: INS-1E rat beta cells, no cytokines, CellTiter-Glo ATP, 48 h; assay: ATP level change in INS-1E without cytokines, dose response, counter-screen for beta-cell apoptosis protection project, INS-1E rat cells, ATP luminescence, cherry pick (AID 463229)

| SMILES | AC50 [µM] |
| --- | --- |
| Cc1ccn2c(Nc3ccccc3)c(-c3ccccn3)nc2c1 | 7.4 |
| O=C(N/N=C\c1c(O)ccc2ccccc12)c1ccc(Cn2cccn2)o1 | 4.39 |
| CC1CCC/C=C/C2CC(O)CC2C(O)/C=C/C(=O)O1 (stereo not given) | 0.759 |
| CCCCOc1ccc(C(=O)NNC(=S)NC(=O)CC)cc1 | 14.3 |
| CCCCNc1c(-c2cccc(-c3ccc(OC)cc3)c2)nc2ccc(C)cn12 | 7.32 |
| Cc1ccc(C(=O)c2c(C)oc3c2C(=O)C(=O)c2ccccc2-3)cc1 | 2.92 |
| [O-][n+]1onc2c1CCc1c-2nn(-c2ccccc2Cl)[n+]1[O-] | 7.37 |
| O=C(Nc1ccc(N2CCN(C(=O)c3ccc(Cl)cc3)CC2)cc1)c1cccnc1 | 18.7 |
| Cc1ccccc1C(=O)Nc1cccc(C(=O)N/N=C/c2cc(Cl)cc([N+](=O)[O-])c2O)c1 | 13.3 |
| O=C(N/N=C/c1cc([N+](=O)[O-])ccc1O)c1cccc2ccccc12 | 9.87 |
| O=C(OCn1ncc(Br)c(Br)c1=O)c1ccc(F)cc1 | 5.09 |
| COc1ccc(C2c3ccc4ccccc4c3Oc3ncn(CCCN(C)C)c(=N)c32)cc1 (stereo not given) | 8.02 |
| S=c1[nH]nc(-c2cc(-c3ccccc3)n[nH]2)n1/N=C/C(Br)=C/c1ccccc1 | 8.81 |
| COc1cc(Cl)c(NC2=CC(=O)C(=O)c3ccccc32)c(OC)c1 | 8.01 |
| O=C(OCn1ncc(Cl)c(Cl)c1=O)c1ccccc1Cl | 7.84 |
| O=C(NNC(=O)c1ccccc1OCc1ccc(F)cc1)c1ccccc1O | 13.6 |
| COc1cc(C)c(C(=O)CC(=O)c2c(C)cc(OC)cc2C)c(C)c1 | 13.7 |
| COc1ccc(C2/C=C\CN(C(=O)c3ccccc3)[C@H](Cc3ccccc3)C(=O)N2Cc2ccc(F)cc2)cc1 (stereo not given in full) | 7.75 |
| Cc1ccc(Nc2c(-c3ccccn3)nc3cc(C)ccn23)cc1 | 7.49 |
| Cc1ccc(C)c(NC(=O)c2ccccc2NS(=O)(=O)c2cc([N+](=O)[O-])ccc2C)c1 | 3.94 |
| CCC(=O)NC(c1cccs1)c1cc(Cl)c2cccnc2c1O (stereo not given) | 5.49 |
| O=C1C(Cl)=C(Nc2ccc3cn[nH]c3c2)C(=O)c2ccccc21 | 4.47 |
| Nc1nonc1-n1nnc(C(=O)N/N=C/c2cc(Br)ccc2O)c1CSC1=NCCS1 | 3.58 |
| Cc1cc(Nc2cccc(Cl)c2)nc(NCc2ccccc2)n1 | 6.46 |
| Cc1ccccc1-[n+]1c(-c2ccccc2)cc(-c2ccccc2)cc1-c1ccccc1 | 2.2 |
| Cn1nc(-c2ccccn2)nc2c(=O)n(C)c(=O)nc1-2 | 3.1 |
| Cc1ccc(C2CC(c3ccc(C)cc3)n3nc(N)nc3N2)cc1 (stereo not given) | 17.9 |
| CN(C)CCNC(=O)/C(=C/c1ccc(-c2ccc(Cl)cc2Cl)o1)NC(=O)c1ccccc1 | 9.44 |

| SMILES | AC50 [µM] |
| --- | --- |
| COc1ccc(C(NC(C)=O)c2cc(Cl)c3cccnc3c2O)cc1OC (stereo not given) | 7.62 |
| O=C(Nc1cccc(S(=O)(=O)Nc2ccc(Cl)cc2)c1)c1ccc(Cl)nc1 | 4.6 |
| Cc1ccc(S(=O)(=O)CC2CSc3nc4ccccc4n32)cc1 (stereo not given) | 6.51 |
| O=C(NC(NC(=S)Nc1ccc(Cl)cc1Cl)C(Cl)(Cl)Cl)c1cccc([N+](=O)[O-])c1 (stereo not given) | 7.31 |
| COc1ccc(C(=O)/C(=C\c2ccco2)N2C=CC=CC2=C(C#N)C#N)cc1 | 7.26 |
| COc1cc(C(=O)Oc2c(CN3CCOCC3)cc(Cl)c3cccnc23)cc(OC)c1OC | 13.3 |
| CCOC(=O)c1ccc(NC(=O)c2nc(S(=O)(=O)Cc3ccccc3)ncc2Cl)cc1 | 9.2 |
| COc1ccc(CCNc2ncnc3sc(C)cc23)cc1OC | 1.33 |
| O=C(N/N=C/c1ccccc1O)C1CC(=O)N(c2ccc(Cl)cc2)C1 (stereo not given) | 17.7 |
| CCOC(=O)c1ccc(NC(=O)Cn2cnc3cc(C)c(C)cc32)cc1 | 5.23 |
| CCOC(=O)c1c(NC(=O)/C=C/C(=O)O)sc(C)c1-c1ccc(C(C)(C)C)cc1 | 7.17 |
| Cc1ccccc1OCc1n(CC(=O)OC2CC(C)CCC2C(C)C)c2ccccc2[n+]1C (stereo not given) | 4.05 |
| COc1ccc(C(CCNCc2ccc(OC(C)C)cc2)c2ccccc2OC)cc1 (stereo not given) | 7.84 |
| COC(=O)C1=C(C)N(Cc2ccccc2)C(=NCc2cccc(C(F)(F)F)c2)N[C@H]1c1cccc(F)c1 | 8.07 |
| COc1ccc(CN(C)c2ccc(S(=O)(=O)N3CCN(C)CC3)cc2[N+](=O)[O-])cc1OC | 2.83 |
| O=[N+]([O-])c1ccc(NC(=S)NCCc2ccc(F)cc2)cc1 | 7.46 |
| O=C(N/N=C/c1ccccc1)c1c(O)c2ccccc2[nH]c1=O | 6.58 |
| O=C(COc1ccccc1-c1ccccc1)N/N=C/c1ccc2ccccc2c1 | 8.67 |
| CC(C)(C)CN1CCC(Oc2cccc(C(=O)NCCCOc3cccnc3)c2)CC1 | 2.13 |
| Cc1cc(C)nc(SCC(=O)NC2=NN=C(c3ccc(Br)cc3)CS2)n1 | 2.52 |
| CN1/C(=C\C(=O)C[n+]2ccc(C(=O)c3ccccc3)cc2)C(C)(C)c2ccccc21 | 1.26 |
| CCc1ccc(-c2cc(C(F)(F)F)n3nc(C(=O)Nc4cnn(Cc5ccc(C)cc5)c4)cc3n2)s1 | 7.83 |
| CCCC(=O)NC(c1ccccc1Cl)c1ccc2cccnc2c1O (stereo not given) | 2.13 |
| CC1=[N+](C)c2ccc3ccccc3c2C1(C)C | 14.6 |
| COc1cccc(/C=N/NC(=O)c2[nH]nc3c2CCc2ccccc2-3)c1O | 4.25 |
| CCNC(=O)Nc1cc(S(=O)(=O)Nc2ccc(OC)cc2)ccc1N1CCOCC1 | 6.84 |
| Cc1ccccc1NC1=C/C(=N\S(=O)(=O)c2cccs2)c2ccccc2C1=O | 1.79 |
